The text below walks through data of the OPERA property sets (Mansouri et al. 2018).

What is called logP is the decadic logarithm of the partition coefficient of the neutral form, usually between octanol and water. The compound `CC(=O)NC(CCCNC(=O)NCCCl)C(=O)NCc1ccccc1` (stereo unspecified) had a logP of 0.34.

`C#CCOc1cc(NC=NOCOC)cc(Cl)c1OCC#C` displayed a logP of 2.2.

Turning to `C=CCN(CC=C)C(=O)COC(=O)Cc1ccc2cc(OC)ccc2c1`, the logP was 3.67.

In the case of `Cc1cc2cc3c(C)cc(=O)oc3c(C)c2o1`, the logP was 3.14.

Compound `CCOc1ccc(-c2nnc(NC(=O)c3c(OC)cccc3OC)s2)cc1` registered a logP of 3.75.

With `NC(=O)Cc1ccc(-n2sc3ccccc3c2=O)cc1`, the logP was determined as 1.72.

`O=c1[nH]c2ccccc2n1C1CCNCC1`: the logP worked out at 1.14.

Compound `Cc1cccc(O)c1C` returned a logP of 2.48.

In turn, `C=CCNC(=O)N(CCC)CCCCC(NC(C)=O)C(=O)NCc1ccccc1` (stereo unspecified) displayed a logP of 1.75.

For `CN(C)C(=O)Oc1ccc(Br)cc1`, the logP is 2.46.

With `CNC(=O)N(CCCCC(NC(C)=O)C(=O)NCc1ccccc1)Cc1ccccc1` (stereo unspecified), the logP stood at 1.99.

On to `C=CCNC(=O)NCCCCC(NC(C)=O)C(=O)NCc1ccccc1` (stereo unspecified), for which the logP stood at 0.76.

`COC(=O)C(C)c1ccc(-n2sc3ccccc3c2=O)cc1` (stereo unspecified) registered a logP of 3.46.

`C#CCOc1cc(NC=NOCC=C)cc(Cl)c1OCC#C` gave a logP of 2.7.

On to `CCCN(CCC)C(=O)COC(=O)Cc1ccc2cc(OC)ccc2c1`, for which the logP is 4.04.

On to `CCOc1ccc(NC(=O)OCCCl)cc1OCC`, for which the logP was found to be 2.62.

`C#CCCOC(=O)Nc1ccc(OCC)c(OCC)c1` displayed a logP of 2.54.

Regarding `[O-][n+]1nc2ccccc2c2ccccc21`, the logP is 2.24.

Regarding `Nc1ncn(C2CC(O)C(CO)O2)c(=O)n1` (stereo unspecified), the logP is -1.89.

`Cc1ccc(CC2CCCC2(O)Cn2cncn2)cc1` (stereo unspecified) came in with a logP of 2.71.

For `CCc1ccc(OC(=O)N(C)C)cc1`, the logP is 2.55.

For the compound `CCOC(=O)COc1ccc(-n2sc3ccccc3c2=O)cc1`, the logP stood at 2.96.

The compound `CN(C)C(=O)Oc1cccc(F)c1` yielded a logP of 1.75.

On to `O=S1CC2=NOS3=C2C(=NO3)C1`, for which the logP is -0.3.

Consider `COc1ccc2cc(CC(=O)OCC(=O)NC(C)(C)C)ccc2c1`, for which the logP amounted to 3.6.

In the case of `CC(=O)NC(CCCCNC(=O)NCCCl)C(=O)NCc1ccccc1` (stereo unspecified), the logP came out at 0.61.

With `Cn1c(N)c(N)c(=O)[nH]c1=O`, the logP was -1.4.

As for `CC(C)(C)C(=O)OCn1cc(F)c(=O)[nH]c1=O`, the logP worked out at 0.66.

In turn, `C=CCN(N=O)C(=O)N(CCC)CCCC(NC(C)=O)C(=O)NCc1ccccc1` (stereo unspecified) came in with a logP of 2.16.

The compound `OC1(Cn2cncn2)CCCC1Cc1ccc(Cl)cc1` (stereo unspecified) showed a logP of 3.11.

Turning to `CC(C(N)=O)c1ccc(-n2sc3ccccc3c2=O)cc1` (stereo unspecified), the logP was determined as 2.07.

Turning to `CC1CCC2C(C)COC3OC4(C)CCC1C32OO4` (stereo unspecified), the log partition coefficient (logP) was determined as 3.16.

`CNC(=O)COC(=O)Cc1ccc2cc(OC)ccc2c1` gave a logP of 2.19.

`CCCCNC(=O)COC(=O)Cc1ccc2cc(OC)ccc2c1` came in with a logP of 3.57.

In turn, `CCCc1ccc(OC(=O)N(C)C)cc1` returned a logP of 3.15.

`OC1(Cn2cncn2)CCCC1Cc1ccc(-c2ccccc2)cc1` (stereo unspecified): the logP was 3.92.

In turn, `CC1(C)CC2=NOS3=C2C(=NO3)C1` registered a logP of 1.9.

On to `Nc1n[n+]([O-])c2cc(OCC(O)CO)ccc2[n+]1[O-]` (stereo unspecified), for which the logP is -1.1.

Consider `CC1CC2=NOS3=C2C(=NO3)C1`, for which the logP is 1.5.

In turn, `C#CC(CC)OC(=O)Nc1ccc(OCC)c(OCC)c1` (stereo unspecified) had a logP of 3.07.

`CCCN(CCCC(NC(C)=O)C(=O)NCc1ccccc1)C(=O)N(C)N=O` (stereo unspecified): the logP was 1.61.

Compound `CCCCCCCCCCn1c(N)c(N)c(=O)[nH]c1=O` gave a logP of 3.04.

In turn, `C#CCOc1ccc(NC=NOCC)cc1OCC#C` returned a logP of 1.9.

In turn, `COc1cccc(OC)c1C(=O)Nc1nnc(-c2ccc(F)cc2)s1` yielded a logP of 3.5.

`CCCN(CCCCC(NC(C)=O)C(=O)NCc1ccccc1)C(=O)NC` (stereo unspecified): the logP was found to be 1.6.

`C#CCOc1cc(NC=NOCC)cc(F)c1OCC#C` returned a logP of 2.1.

Compound `C=CCN(N=O)C(=O)NCCCC(NC(C)=O)C(=O)NCc1ccccc1` (stereo unspecified) came in with a logP of 1.3.

`CNC(=O)N(CCCC(NC(C)=O)C(=O)NCc1ccccc1)Cc1ccccc1` (stereo unspecified) gave a logP of 1.86.

As for `CCCN(CCCC(NC(C)=O)C(=O)NCc1ccccc1)C(=O)NC` (stereo unspecified), the log partition coefficient (logP) came to 1.47.

In the case of `C=CC(CC)OC(=O)Nc1ccc(OCC)c(OCC)c1` (stereo unspecified), the logP came to 3.42.

Compound `CN(C)C(=O)Oc1ccc(F)cc1` came in with a logP of 1.58.

For `CCc1cccc(OC(=O)N(C)C)c1`, the logP was 2.47.

Consider `CNC(=O)NCCCCC(NC(C)=O)C(=O)NCc1ccccc1` (stereo unspecified), for which the lipophilicity (logP) turned out to be 0.06.

As for `CCOc1ccc(NC(=O)OC(C)COC)cc1OCC` (stereo unspecified), the logP was 2.56.

For the compound `CNC(=O)NCCCC(NC(C)=O)C(=O)NCc1ccccc1` (stereo unspecified), the logP is -0.33.

As to `COc1ccc2cc(CC(=O)OCC(=O)N(CCO)CCO)ccc2c1`, the logP was found to be 1.41.

For `COc1ccc2cc(CC(=O)OCC(=O)NC3CCCCC3)ccc2c1`, the logP amounted to 3.99.

Regarding `CC(C)=CCN1CC[C@@]2(C)c3cc(O)ccc3C[C@@H]1[C@@H]2C`, the lipophilicity (logP) was 4.64.

`C#CCOc1cc(NC=NOC)cc(Cl)c1OCC#C` yielded a logP of 2.3.

For the compound `CCC1CCC(Cc2ccc(Cl)cc2)C1(O)Cn1cncn1` (stereo unspecified), the logP was determined as 3.71.

With `CC=CCOCN(C(=O)CCl)c1c(CC)cccc1CC`, the logP was 3.51.
